Results from ChEMBL document CHEMBL1201862, “PubChem BioAssay data set” (2004).
The source made the active and inactive calls.

How the values were obtained:
[1] = tested on: SN12K1; test: cells; assay type: functional; conditions: Homo sapiens
[2] = tested on: P388; test: cells; assay type: functional; conditions: Mus musculus
[3] = tested on: P388/ADR; test: cells; assay type: functional; conditions: Mus musculus
[4] = target: Nuclear receptor subfamily 5 group A member 2 (Homo sapiens, UniProt O00482); assay type: functional, cell-based;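 also: HEK293T cells transfected with LRH-1 and a StAR promoter luciferase reporter; potency for inhibitors that lower LRH-1 driven reporter light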
[5] = nonselective StAR promoter luciferase inhibitors – cell-based, luminescence, luciferase reporter, counter-screen for LRH-1 inverse agonist project, dose response (AID 651969); assay type: functional
[6] = target: Steroidogenic factor 1 (Homo sapiens, UniProt Q13285); test: Counterscreen for inverse agonists of the liver receptor homolog-1 (LRH-1; NR5A2): Luminescence-based cell-based high throughput dose response assay to identify inverse agonists of the Steroidogenic Factor 1 Nuclear Receptor (SF1; NR5A1).; assay type: functional
[7] = bead-based luminescence quenchers, dual-tagged ARNT – biochemical, AlphaScreen, cherry-pick, artefact control for ARNT-TACC3 interaction inhibitor project, dose response (AID 651705); assay type: functional;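 also: AlphaScreen bead proximity signal that flags compounds interfering with the detection technology; potency reflects signal decrease which marks the compound as an assay artifact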
[8] = target: T1, Apoptotic protease-activating factor 1 (Homo sapiens, UniProt O14727); test: SAR analysis of small molecule Activators of Apaf-1 in a Fluorescent assay.; assay type: functional; conditions: read-out: EC50_Mean;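 also: caspase-3 cleavage of fluorogenic Rh110 DEVD substrate downstream of apoptosome activation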
T1 sequence (O14727 whole entry): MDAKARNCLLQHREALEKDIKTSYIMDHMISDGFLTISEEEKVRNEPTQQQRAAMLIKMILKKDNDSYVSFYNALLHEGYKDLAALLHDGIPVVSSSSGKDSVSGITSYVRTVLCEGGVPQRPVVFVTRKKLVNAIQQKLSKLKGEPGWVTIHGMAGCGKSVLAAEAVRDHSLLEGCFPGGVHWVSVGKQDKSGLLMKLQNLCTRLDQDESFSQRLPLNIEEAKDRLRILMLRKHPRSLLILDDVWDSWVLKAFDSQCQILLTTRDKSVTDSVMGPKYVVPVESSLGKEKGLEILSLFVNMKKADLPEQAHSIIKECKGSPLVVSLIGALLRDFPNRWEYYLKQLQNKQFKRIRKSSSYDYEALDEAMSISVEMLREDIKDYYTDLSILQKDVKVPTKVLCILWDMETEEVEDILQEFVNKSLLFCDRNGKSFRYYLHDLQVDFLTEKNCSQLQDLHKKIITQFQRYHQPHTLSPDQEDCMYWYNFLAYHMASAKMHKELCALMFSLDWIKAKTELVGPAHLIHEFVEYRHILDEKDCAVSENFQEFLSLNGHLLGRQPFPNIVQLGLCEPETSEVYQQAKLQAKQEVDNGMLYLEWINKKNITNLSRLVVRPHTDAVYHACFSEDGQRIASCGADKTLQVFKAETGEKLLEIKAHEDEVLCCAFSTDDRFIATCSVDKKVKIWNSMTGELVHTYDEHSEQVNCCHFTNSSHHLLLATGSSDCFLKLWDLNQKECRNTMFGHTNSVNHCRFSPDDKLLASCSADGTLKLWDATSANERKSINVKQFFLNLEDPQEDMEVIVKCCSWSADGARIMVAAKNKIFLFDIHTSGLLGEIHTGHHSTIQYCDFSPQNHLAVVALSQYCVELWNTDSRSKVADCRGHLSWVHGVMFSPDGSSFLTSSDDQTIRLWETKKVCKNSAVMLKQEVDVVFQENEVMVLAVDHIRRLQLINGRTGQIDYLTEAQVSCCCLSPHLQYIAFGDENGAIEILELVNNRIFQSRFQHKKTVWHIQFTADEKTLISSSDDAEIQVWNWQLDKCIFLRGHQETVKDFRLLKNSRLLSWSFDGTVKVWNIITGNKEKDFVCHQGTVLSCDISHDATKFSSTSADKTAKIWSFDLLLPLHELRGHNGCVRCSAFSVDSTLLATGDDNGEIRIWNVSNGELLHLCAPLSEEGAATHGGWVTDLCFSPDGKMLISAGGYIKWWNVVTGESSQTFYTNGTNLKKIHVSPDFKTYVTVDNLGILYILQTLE

[9] = target: T2, Interleukin-8 (Homo sapiens, UniProt P10145); test: Dose Response confirmation of uHTS small molecule hits for cystic fibrosis induced NFkb Inhibitors in a PAF-induced IL8 counterscreen.; assay type: functional; conditions: read-out: IC50_Mean
T2 sequence (P10145 whole entry): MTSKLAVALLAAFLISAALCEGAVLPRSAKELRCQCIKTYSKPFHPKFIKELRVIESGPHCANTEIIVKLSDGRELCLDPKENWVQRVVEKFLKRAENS

[10] = target: T2, Interleukin-8; test: Dose Response confirmation of uHTS small molecule hits for cystic fibrosis induced NFkb Inhibitors in a TNFa-induced IL8 counterscreen.; assay type: functional; conditions: read-out: IC50_Mean
[11] = target: Melanocortin receptor 4 (Homo sapiens, UniProt P32245); assay type: functional, cell-based;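 also: Cell-based assay with luminescence read-out, confirmatory dose-response testing for agonist activity of biased ligands at MC4R; human U2OS cells with tagged receptor and beta-arrestin; potency of agonists that increase receptor coupling to beta-arrestin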
[12] = target: Beta-2 adrenergic receptor (Homo sapiens, UniProt P07550); test: ADRB2 activation measured by internalization – cell-based, FAP fluorogen, flow cytometry, cherry pick 1, dose response (AID 588763); assay type: functional
[13] = target: T3, Fatty acid synthase (Homo sapiens, UniProt P49327); test: inhibition of human FAS-TE enzyme activity – biochemical, kinetic fluorescence intensity, dose response (AID 624326); assay type: functional;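 also: rate of fluorescence rise from hydrolysis of a fluorogenic O-methyl fluorescein ester substrate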
[14] = target: T3, Fatty acid synthase; test: inhibition of human FAS-TE enzyme activity – biochemical, endpoint fluorescence intensity, uHTS hits, dose response (AID 624327); assay type: functional;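 also: fluorescence from hydrolysis of an O-methyl fluorescein acyl ester substrate by the enzyme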
[15] = target: Paired box protein Pax-8 (Homo sapiens, UniProt Q06710); test: PAX8 transcriptional activity inhibition in RMG-I – RMG-I cells, luciferase, cherry-pick, dose response (AID 687027); assay type: functional, cell-based;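 also: luciferase reporter driven by Pax8 target thyroperoxidase promoter measured by SteadyGlo luminescence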
[16] = target: Low molecular weight phosphotyrosine protein phosphatase (Homo sapiens, UniProt P24666); assay type: functional; conditions: read-out: IC50_Mean;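 also: Dose-response confirmation assay measuring inhibition of LMPTP enzyme activity by fluorescence intensity read-out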
[17] = target: T4, Dual specificity protein phosphatase 6 (Rattus norvegicus, UniProt Q64346); test: inhibition of rat DUSP6 enzyme activity – biochemical, in vitro, primary screen (AID 425)
T4 sequence (Q64346 whole entry): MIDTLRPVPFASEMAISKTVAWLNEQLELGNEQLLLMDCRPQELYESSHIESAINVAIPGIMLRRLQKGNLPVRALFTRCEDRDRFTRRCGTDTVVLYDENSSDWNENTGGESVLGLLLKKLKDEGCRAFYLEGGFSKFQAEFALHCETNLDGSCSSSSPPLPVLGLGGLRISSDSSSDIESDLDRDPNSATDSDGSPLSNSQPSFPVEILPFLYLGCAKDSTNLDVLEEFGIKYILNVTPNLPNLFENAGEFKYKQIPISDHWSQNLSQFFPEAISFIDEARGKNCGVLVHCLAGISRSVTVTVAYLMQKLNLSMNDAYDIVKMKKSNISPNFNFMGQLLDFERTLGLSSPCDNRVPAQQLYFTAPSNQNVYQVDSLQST

[18] = target: T5, Rac GTPase-activating protein 1 (Homo sapiens, UniProt Q9H0H5); test: blockers of MgcRacGAP-driven Rac1 GTP hydrolysis – biochemical, ADP Hunter fluorescence, primary and confirmatory, confirmation (AID 624330); assay type: functional
T5 sequence (Q9H0H5 whole entry): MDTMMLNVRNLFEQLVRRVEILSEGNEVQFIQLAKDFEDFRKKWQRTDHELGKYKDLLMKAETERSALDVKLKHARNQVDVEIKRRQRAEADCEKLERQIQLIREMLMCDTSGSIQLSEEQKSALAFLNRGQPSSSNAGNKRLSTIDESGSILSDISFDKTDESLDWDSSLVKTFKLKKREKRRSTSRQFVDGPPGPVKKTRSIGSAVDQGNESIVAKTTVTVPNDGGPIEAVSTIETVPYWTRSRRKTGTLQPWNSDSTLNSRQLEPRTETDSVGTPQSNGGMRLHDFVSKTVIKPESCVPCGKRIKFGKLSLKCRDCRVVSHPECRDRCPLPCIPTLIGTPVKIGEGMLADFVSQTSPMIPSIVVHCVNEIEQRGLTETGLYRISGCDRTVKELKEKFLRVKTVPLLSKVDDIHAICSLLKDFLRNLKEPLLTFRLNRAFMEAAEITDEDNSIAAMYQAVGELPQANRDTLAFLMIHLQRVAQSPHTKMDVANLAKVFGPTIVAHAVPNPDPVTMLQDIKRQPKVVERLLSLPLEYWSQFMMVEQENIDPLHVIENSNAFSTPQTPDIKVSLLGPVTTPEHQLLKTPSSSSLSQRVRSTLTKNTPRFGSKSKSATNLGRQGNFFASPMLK

[19] = target: Large T antigen (Simian virus 40, UniProt P03070); assay type: functional, Betapolyomavirus macacae;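 also: Confirmatory-stage PubChem screen for compounds that inhibit SV40 T antigen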
[20] = NIH3T3 cell viability loss – ATP luminescence, mouse fibroblasts, counter-screen, dose response (AID 2010); assay type: functional, cell-based;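 also: cells exposed to compound for about 90 hours before reading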
[21] = target: T6, Heat shock factor protein 1 (Mus musculus, UniProt P38532); test: enhancement of HSF1-driven luciferase signal – cell-based, NIH3T3, luminescence, dose retest, confirmation (AID 435004); assay type: functional;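 also: stress induced by proteasome inhibitor MG132 added 30 min after compound; luciferase reporter driven by HSF1 response element in NIH3T3 cells; actives raise luminescence as potentiators of the MG132 stress response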
T6 sequence (P38532 whole entry): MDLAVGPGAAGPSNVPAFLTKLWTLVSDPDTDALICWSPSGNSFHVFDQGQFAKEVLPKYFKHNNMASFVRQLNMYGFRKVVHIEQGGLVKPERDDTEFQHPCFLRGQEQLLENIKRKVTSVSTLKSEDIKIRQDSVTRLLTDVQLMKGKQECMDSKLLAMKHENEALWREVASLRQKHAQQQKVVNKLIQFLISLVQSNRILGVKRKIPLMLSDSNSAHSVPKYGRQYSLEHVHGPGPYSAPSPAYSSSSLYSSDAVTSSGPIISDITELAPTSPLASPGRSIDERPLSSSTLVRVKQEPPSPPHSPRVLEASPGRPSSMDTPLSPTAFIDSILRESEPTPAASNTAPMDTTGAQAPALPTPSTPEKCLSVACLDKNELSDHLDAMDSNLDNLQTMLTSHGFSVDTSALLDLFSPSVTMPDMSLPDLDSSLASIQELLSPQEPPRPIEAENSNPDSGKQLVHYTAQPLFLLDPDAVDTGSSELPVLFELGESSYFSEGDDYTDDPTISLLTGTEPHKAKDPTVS

[22] = Trypanosoma cruzi growth suppression in host cells – NIH3T3 host cells, beta-gal luminescence, confirmation (AID 2044); assay type: functional, cell-based;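 also: intracellular parasites grown in NIH/3T3 mouse fibroblasts as host cells; luminescent beta-galactosidase reporter signal from transgenic T. cruzi replicating inside host cells; inhibitors lower the luminescence signal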
[23] = target: T7, X-box-binding protein 1 (Homo sapiens, UniProt P17861); assay type: functional, Cricetulus griseus;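 also: confirmatory dose-response counter-screen serving a CHOP assay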
T7 sequence (P17861 whole entry): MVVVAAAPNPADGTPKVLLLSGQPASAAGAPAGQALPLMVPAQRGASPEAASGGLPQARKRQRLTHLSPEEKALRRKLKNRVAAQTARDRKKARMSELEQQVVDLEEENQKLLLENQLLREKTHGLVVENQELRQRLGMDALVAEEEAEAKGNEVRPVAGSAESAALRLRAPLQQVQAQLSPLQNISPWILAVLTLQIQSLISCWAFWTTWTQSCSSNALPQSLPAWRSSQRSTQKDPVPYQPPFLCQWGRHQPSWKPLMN

Nuclear receptor subfamily 5 group A member 2, sequence (O00482 whole entry): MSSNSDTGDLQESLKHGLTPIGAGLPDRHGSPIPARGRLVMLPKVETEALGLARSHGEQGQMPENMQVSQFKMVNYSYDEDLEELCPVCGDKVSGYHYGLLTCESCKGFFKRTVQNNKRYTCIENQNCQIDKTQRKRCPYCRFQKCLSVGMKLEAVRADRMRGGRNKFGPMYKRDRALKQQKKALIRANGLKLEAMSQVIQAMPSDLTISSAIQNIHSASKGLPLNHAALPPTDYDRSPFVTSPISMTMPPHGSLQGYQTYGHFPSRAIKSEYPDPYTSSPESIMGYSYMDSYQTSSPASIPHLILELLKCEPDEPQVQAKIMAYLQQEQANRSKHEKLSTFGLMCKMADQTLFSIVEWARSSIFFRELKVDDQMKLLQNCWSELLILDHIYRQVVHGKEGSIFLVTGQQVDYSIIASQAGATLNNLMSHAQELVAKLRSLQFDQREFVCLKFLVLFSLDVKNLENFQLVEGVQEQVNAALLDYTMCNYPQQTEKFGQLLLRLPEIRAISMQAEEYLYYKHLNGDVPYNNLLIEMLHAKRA
Melanocortin receptor 4, sequence (P32245 whole entry): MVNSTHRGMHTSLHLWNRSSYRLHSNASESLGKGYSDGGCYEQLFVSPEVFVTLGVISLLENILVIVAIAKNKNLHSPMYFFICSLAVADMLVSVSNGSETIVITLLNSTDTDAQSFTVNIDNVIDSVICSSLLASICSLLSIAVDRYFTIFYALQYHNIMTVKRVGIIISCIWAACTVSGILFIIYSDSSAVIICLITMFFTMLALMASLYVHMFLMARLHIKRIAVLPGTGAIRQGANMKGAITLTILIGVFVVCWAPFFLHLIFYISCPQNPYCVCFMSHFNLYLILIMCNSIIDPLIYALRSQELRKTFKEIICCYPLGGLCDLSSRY
Low molecular weight phosphotyrosine protein phosphatase, sequence (P24666 whole entry): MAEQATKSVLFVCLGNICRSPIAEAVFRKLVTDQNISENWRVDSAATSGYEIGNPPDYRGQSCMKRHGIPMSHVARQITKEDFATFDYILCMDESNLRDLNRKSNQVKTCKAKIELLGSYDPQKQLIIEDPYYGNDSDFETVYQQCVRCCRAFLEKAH
Steroidogenic factor 1, sequence (Q13285 whole entry): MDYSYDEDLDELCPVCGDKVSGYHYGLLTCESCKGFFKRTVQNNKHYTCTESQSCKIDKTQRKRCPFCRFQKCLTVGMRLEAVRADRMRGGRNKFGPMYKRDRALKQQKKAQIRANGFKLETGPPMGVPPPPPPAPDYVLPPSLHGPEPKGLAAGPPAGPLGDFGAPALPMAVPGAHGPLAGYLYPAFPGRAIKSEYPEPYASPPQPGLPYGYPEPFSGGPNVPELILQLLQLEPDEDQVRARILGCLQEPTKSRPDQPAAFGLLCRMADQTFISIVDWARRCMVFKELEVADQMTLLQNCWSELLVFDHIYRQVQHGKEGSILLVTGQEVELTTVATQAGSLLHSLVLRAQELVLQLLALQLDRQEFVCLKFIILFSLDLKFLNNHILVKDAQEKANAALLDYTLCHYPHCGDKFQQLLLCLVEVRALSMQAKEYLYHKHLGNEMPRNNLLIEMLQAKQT
T3 sequence (P49327 whole entry): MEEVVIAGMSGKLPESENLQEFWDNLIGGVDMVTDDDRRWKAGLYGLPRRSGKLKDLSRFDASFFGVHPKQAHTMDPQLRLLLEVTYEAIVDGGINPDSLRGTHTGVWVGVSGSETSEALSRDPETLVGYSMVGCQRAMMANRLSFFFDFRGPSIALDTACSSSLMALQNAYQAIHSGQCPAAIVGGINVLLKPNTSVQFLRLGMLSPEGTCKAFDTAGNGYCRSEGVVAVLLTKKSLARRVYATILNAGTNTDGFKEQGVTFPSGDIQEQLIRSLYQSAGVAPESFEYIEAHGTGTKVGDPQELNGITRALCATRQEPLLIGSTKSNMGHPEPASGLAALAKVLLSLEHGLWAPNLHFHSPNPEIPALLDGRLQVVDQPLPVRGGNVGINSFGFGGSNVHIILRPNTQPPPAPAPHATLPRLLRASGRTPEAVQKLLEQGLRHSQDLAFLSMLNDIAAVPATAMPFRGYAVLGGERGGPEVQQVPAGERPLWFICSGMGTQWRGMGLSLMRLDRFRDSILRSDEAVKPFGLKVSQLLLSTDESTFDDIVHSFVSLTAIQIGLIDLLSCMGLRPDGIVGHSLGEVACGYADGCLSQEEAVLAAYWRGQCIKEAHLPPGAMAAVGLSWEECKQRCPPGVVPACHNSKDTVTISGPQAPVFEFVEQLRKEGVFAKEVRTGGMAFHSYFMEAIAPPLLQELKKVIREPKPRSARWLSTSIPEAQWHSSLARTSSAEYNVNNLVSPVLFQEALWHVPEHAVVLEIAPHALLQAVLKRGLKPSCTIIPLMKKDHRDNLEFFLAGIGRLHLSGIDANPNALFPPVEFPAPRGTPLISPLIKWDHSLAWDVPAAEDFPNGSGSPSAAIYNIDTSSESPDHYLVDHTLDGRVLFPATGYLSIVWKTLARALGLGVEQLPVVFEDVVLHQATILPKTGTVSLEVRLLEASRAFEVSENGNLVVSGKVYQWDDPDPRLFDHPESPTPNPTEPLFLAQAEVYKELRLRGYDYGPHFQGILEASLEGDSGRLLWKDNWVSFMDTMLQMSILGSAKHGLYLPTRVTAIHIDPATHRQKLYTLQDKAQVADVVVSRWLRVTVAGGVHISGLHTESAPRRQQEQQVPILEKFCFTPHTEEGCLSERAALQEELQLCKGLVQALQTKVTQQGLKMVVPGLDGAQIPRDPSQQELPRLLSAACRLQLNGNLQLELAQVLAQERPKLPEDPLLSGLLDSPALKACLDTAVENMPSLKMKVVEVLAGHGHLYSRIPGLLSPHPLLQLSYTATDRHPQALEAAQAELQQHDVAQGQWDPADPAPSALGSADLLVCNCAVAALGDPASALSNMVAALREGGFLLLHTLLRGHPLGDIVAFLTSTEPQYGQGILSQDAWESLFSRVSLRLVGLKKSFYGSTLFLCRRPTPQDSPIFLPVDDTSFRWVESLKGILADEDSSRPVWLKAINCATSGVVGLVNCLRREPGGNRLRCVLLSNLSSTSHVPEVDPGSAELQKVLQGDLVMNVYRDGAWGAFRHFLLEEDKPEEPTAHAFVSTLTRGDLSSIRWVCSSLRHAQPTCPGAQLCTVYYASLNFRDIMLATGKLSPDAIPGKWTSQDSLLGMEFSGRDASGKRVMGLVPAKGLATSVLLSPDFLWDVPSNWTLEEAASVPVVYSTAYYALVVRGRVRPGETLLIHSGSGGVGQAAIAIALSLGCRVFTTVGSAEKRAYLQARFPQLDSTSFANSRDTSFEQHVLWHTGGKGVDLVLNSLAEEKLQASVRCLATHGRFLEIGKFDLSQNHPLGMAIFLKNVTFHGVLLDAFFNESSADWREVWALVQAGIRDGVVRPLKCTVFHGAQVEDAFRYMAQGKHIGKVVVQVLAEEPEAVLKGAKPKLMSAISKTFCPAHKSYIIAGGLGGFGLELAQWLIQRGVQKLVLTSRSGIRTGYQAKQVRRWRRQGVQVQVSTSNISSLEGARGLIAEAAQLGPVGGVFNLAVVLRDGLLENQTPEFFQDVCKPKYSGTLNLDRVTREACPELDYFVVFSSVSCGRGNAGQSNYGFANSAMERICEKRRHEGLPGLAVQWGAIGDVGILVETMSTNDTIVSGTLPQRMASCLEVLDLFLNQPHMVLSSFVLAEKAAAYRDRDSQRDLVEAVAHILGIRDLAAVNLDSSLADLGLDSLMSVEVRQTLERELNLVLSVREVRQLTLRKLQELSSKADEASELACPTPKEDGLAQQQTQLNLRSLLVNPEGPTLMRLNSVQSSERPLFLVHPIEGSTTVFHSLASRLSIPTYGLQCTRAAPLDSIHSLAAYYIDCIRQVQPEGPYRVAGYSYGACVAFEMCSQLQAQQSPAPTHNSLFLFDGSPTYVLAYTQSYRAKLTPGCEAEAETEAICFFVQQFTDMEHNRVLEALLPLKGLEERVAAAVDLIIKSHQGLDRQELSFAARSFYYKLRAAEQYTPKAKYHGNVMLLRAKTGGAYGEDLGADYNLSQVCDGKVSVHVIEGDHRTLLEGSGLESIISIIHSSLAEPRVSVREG
Beta-2 adrenergic receptor, sequence (P07550 whole entry): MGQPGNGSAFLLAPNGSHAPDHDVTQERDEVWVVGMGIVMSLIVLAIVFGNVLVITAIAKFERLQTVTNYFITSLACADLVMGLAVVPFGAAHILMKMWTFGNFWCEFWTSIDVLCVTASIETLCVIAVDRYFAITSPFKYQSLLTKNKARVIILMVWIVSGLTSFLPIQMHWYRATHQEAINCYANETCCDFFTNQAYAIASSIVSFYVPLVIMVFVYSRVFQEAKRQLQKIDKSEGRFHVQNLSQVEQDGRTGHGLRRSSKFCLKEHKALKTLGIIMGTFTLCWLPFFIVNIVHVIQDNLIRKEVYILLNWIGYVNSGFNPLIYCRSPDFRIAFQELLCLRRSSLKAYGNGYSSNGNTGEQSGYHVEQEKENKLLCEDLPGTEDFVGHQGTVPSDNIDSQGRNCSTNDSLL
Paired box protein Pax-8, sequence (Q06710 whole entry): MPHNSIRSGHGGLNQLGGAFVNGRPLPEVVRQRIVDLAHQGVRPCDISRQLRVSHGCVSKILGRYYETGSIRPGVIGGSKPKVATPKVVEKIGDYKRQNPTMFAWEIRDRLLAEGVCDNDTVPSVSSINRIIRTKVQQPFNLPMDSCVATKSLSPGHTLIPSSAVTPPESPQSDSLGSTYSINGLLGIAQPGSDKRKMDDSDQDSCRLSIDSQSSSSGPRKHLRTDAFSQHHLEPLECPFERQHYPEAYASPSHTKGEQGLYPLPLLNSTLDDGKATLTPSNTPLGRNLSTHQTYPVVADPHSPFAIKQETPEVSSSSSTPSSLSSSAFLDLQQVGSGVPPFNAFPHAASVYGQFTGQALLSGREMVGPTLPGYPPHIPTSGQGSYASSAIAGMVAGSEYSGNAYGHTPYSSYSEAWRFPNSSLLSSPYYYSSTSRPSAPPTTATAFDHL

COCCOCOc1ccc(OCc2ccccc2)cc1
GI50 [1]: > 100 µM (inactive) | GI50 [2]: 31.3 µM (inactive) | GI50 [3]: 24 µM (inactive)

O=C(CSc1nc(=O)n2cc(Cl)ccc2n1)Nc1ccc2c(c1)OCCO2
IC50 [4]: 35.9 µM (inactive) | IC50 [5]: 35.9 µM (inactive) | IC50 [6]: 35.9 µM (inactive)

Cc1ccccc1-c1nc2c(C(=O)NCCN(C)C)cccc2[nH]1
GI50 [1]: 30.5 µM (inactive) | GI50 [2]: 16.3 µM (inactive) | GI50 [3]: 26.5 µM (inactive)

O=C(NCCCn1ccnc1)Nc1ccc(Cl)c(Cl)c1
AC50 [7]: 99 µM (active)

Cc1ccc(N2C(=O)CC3(CC(c4ccc(Br)cc4)=NO3)C2=O)cc1 (centres undefined)
EC50 [8]: > 100 µM (inactive)

COc1ccc(-c2csc(NC3OC(=O)c4c3ccc(OC)c4OC)n2)cc1OC (centres undefined)
IC50 [9]: 1.37 µM (active) | IC50 [10]: 0.969 µM (active)

NC(c1ccccc1)c1csc(NC(=O)Nc2ccccc2Oc2ccccc2)n1 (centres undefined)
EC50 [11]: > 89.2 µM (inactive)

COc1ccc(CC(NC(C)=O)C(=O)NC2CCN(c3nnnn3-c3ccccc3)CC2)cc1 (centres undefined)
IC50 [4]: 16.5 µM (inactive) | IC50 [5]: 35.9 µM (inactive) | IC50 [6]: 11.3 µM (inactive)

COc1cc2ncc(S(=O)(=O)c3ccccc3)c(N3CCCC(C)C3)c2cc1OC (centres undefined)
EC50 [12]: 1.07 µM (active) | IC50 [13]: 3.13 µM (active) | IC50 [14]: 4.78 µM (active)

C=C1C(=O)O[C@@H]2[C@H]1CC[C@H](C)[C@]1(O)CCC(=O)[C@@]21C [CORONOPILIN]
AC50 [15]: 5.43 µM (active) | IC50 [9]: 7.49 µM (active) | IC50 [10]: 40.5 µM (inactive)

COc1cc2c(cc1Oc1ccc(OC)c3c1CC1c4c(cc(OC)c(OC)c4-3)CCN1C)CC1c3c(cc(OC)c(OC)c3-2)CCN1C (centres undefined)
GI50 [1]: 0.424 µM (active) | GI50 [2]: 1.77 µM (inactive) | GI50 [3]: 1.87 µM (inactive)

CC(Nc1nc(-c2ccccc2F)nc2ccccc12)c1ccccc1 (centres undefined)
IC50 [16]: 5.48 µM (active)

O=C(O)c1cnc2ccc(S(=O)(=O)N3CCN(c4ccc(F)cc4)CC3)cc2c1O
IC50 [16]: 50.6 µM (inactive) | IC50 [17]: > 10 µM (not active)

O=C(O)[C@@H]1COC(c2ccccc2C(F)(F)F)=N1
EC50 [8]: > 100 µM (inactive)

CCOC(=O)C1(C)C=C(Nc2ccc(O)cc2)C(=O)N1c1ccc(O)cc1 (centres undefined)
IC50 [18]: 21.4 µM (active) | EC50 [12]: 1.09 µM (active) | IC50 [19]: 8.11 µM (active)

COc1cc(-c2nnc(NC(=O)CS(=O)(=O)c3ccc(F)cc3)o2)cc(OC)c1OC
AC50 [7]: 102 µM (active)

Cc1ccc(C2=NN(C(=O)c3cccs3)C(c3ccccc3O)C2)cc1 (centres undefined)
EC50 [11]: > 89.2 µM (inactive) | EC50 [20]: > 60 µM (not active) | EC50 [21]: > 260 µM (inactive) | EC50 [22]: 2.49 µM (active) | Absolute IC50 (XBP1) [23]: 10 µM
